# Measurements from ChEMBL document CHEMBL1201861, “Genomics of Drug Sensitity in Cancer screening data, Wellcome Trust Sanger Institute”.
# pIC50: −log10 of the molar value.
# How the values were obtained:
# MEL-HO = experiment: cells; format: functional, cell-based; details: Homo sapiens
# Description: SANGER: Inhibition of human MEL-HO cell growth in a cell viability assay.
# HCC 2998 = experiment: cells; format: functional, cell-based; details: Homo sapiens;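 further: growth inhibition of human HCC2998 cells, measured with a cell viability read-out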
# Description: SANGER: Inhibition of human HCC2998 cell growth in a cell viability assay.
# TE-441-T = experiment: cells; format: functional, cell-based; details: Homo sapiens
# Description: SANGER: Inhibition of human TE-441-T cell growth in a cell viability assay.
# A253 cell line = experiment: cells; format: functional, cell-based; details: Homo sapiens;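 further: growth inhibition of A253 cells, read out with a cell viability assay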
# Description: SANGER: Inhibition of human A253 cell growth in a cell viability assay.
# CAL-120 = experiment: cells; format: functional, cell-based; details: Homo sapiens;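 further: cell growth inhibition, read out as cell viability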
# Description: SANGER: Inhibition of human CAL-120 cell growth in a cell viability assay.
# LB996-RCC = experiment: cells; format: functional, cell-based; details: Homo sapiens
# Description: SANGER: Inhibition of human LB996-RCC cell growth in a cell viability assay.
# BT-20 = experiment: cells; format: functional, cell-based; details: Homo sapiens;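 further: cell viability assay measuring suppression of growth in human BT-20 cells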
# Description: SANGER: Inhibition of human BT-20 cell growth in a cell viability assay.
# HT-1080 = experiment: cells; format: functional, cell-based; details: Homo sapiens
# Description: SANGER: Inhibition of human HT-1080 cell growth in a cell viability assay.
# HPAF-II = experiment: cells; format: functional, cell-based; details: Homo sapiens;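 further: growth inhibition of HPAF-II cells, read out with a cell viability assay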
# Description: SANGER: Inhibition of human HPAF-II cell growth in a cell viability assay.
# DG-75 = experiment: cells; format: functional, cell-based; details: Homo sapiens;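 further: growth inhibition of DG-75 cells, read out with a cell viability assay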
# Description: SANGER: Inhibition of human DG-75 cell growth in a cell viability assay.
# CHP-126 = experiment: cells; format: functional, cell-based; details: Homo sapiens
# Description: SANGER: Inhibition of human CHP-126 cell growth in a cell viability assay.
# SBC-5 = experiment: cells; format: functional, cell-based; details: Homo sapiens;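 further: cell viability assay read-out, IC50 is the concentration that inhibits growth of the cells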
# Description: SANGER: Inhibition of human SBC-5 cell growth in a cell viability assay.
# GP5d = experiment: cells; format: functional, cell-based; details: Homo sapiens;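 further: growth inhibition of human GP5d cells, read out with a cell viability assay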
# Description: SANGER: Inhibition of human GP5d cell growth in a cell viability assay.
# NCI-H2171 = experiment: cells; format: functional, cell-based; details: Homo sapiens;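 further: growth inhibition of human NCI-H2171 cells, read out by a cell viability assay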
# Description: SANGER: Inhibition of human NCI-H2171 cell growth in a cell viability assay.
# DMS-153 = experiment: cells; format: functional, cell-based; details: Homo sapiens
# Description: SANGER: Inhibition of human DMS-153 cell growth in a cell viability assay.
# KMS-12-PE = experiment: cells; format: functional, cell-based; details: Homo sapiens;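 further: growth inhibition of human KMS-12-PE cells, measured with a cell viability assay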
# Description: SANGER: Inhibition of human KMS-12-PE cell growth in a cell viability assay.
# ME-180 = experiment: cells; format: functional, cell-based; details: Homo sapiens;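 further: cell viability assay measuring growth inhibition of ME-180 cells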
# Description: SANGER: Inhibition of human ME-180 cell growth in a cell viability assay.
# YAPC = experiment: cells; format: functional, cell-based; details: Homo sapiens;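 further: growth inhibition of YAPC cells, measured with a cell viability assay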
# Description: SANGER: Inhibition of human YAPC cell growth in a cell viability assay.
# BPH-1 = experiment: cells; format: functional, cell-based; details: Homo sapiens;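 further: cell viability assay measuring growth inhibition of human BPH-1 cells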
# Description: SANGER: Inhibition of human BPH-1 cell growth in a cell viability assay.
# CHP-212 = experiment: cells; format: functional, cell-based; details: Homo sapiens
# Description: SANGER: Inhibition of human CHP-212 cell growth in a cell viability assay.
# Ca9-22 = experiment: cells; format: functional, cell-based; details: Homo sapiens;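 further: growth inhibition of Ca9-22 cells, read out with a cell viability assay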
# Description: SANGER: Inhibition of human Ca9-22 cell growth in a cell viability assay.
# NCI-H1573 = experiment: cells; format: functional, cell-based; details: Homo sapiens;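 further: growth inhibition of NCI-H1573 cells, read out with a cell viability assay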
# Description: SANGER: Inhibition of human NCI-H1573 cell growth in a cell viability assay.
# HuCCT-1 = experiment: cells; format: functional, cell-based, HuCCT1; details: Homo sapiens;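 further: growth inhibition of HuCCT-1 cells, read out by a cell viability assay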
# Description: SANGER: Inhibition of human HuCCT1 cell growth in a cell viability assay.
# LB647-SCLC = experiment: cells; format: functional, cell-based; details: Homo sapiens;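 further: cell growth inhibition, read out by a viability assay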
# Description: SANGER: Inhibition of human LB647-SCLC cell growth in a cell viability assay.
# EHEB = experiment: cells; format: functional, cell-based; details: Homo sapiens;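 further: growth inhibition of human EHEB cells, read out with a cell viability assay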
# Description: SANGER: Inhibition of human EHEB cell growth in a cell viability assay.
# NCI-H748 = experiment: cells; format: functional, cell-based; details: Homo sapiens;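 further: growth inhibition of NCI-H748 cells, measured by a cell viability assay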
# Description: SANGER: Inhibition of human NCI-H748 cell growth in a cell viability assay.
# SNU-423 = experiment: cells; format: functional, cell-based; details: Homo sapiens
# Description: SANGER: Inhibition of human SNU-423 cell growth in a cell viability assay.
# EFM-19 = experiment: cells; format: functional, cell-based; details: Homo sapiens;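 further: growth inhibition of human EFM-19 cells, measured in a cell viability assay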
# Description: SANGER: Inhibition of human EFM-19 cell growth in a cell viability assay.
# MCF7 = experiment: cells; format: functional, cell-based; details: Homo sapiens;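 further: growth inhibition of human MCF7 cells, read out with a cell viability assay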
# Description: SANGER: Inhibition of human MCF7 cell growth in a cell viability assay.
# CHL-1 = experiment: cells; format: functional, cell-based; details: Homo sapiens;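 further: cell growth inhibition, read out with a cell viability assay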
# Description: SANGER: Inhibition of human CHL-1 cell growth in a cell viability assay.
# HEC-1 = experiment: cells; format: functional, cell-based; details: Homo sapiens;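 further: growth inhibition of the cell line, read out with a cell viability assay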
# Description: SANGER: Inhibition of human HEC-1 cell growth in a cell viability assay.
# PANC-08-13 = experiment: cells; format: functional, cell-based; details: Homo sapiens
# Description: SANGER: Inhibition of human PANC-08-13 cell growth in a cell viability assay.
# EFO-21 = experiment: cells; format: functional, cell-based; details: Homo sapiens;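 further: growth inhibition of EFO-21 cells measured with a viability assay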
# Description: SANGER: Inhibition of human EFO-21 cell growth in a cell viability assay.
# NCI-H2081 = experiment: cells; format: functional, cell-based; details: Homo sapiens;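 further: growth inhibition of human NCI-H2081 cells, read out with a cell viability assay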
# Description: SANGER: Inhibition of human NCI-H2081 cell growth in a cell viability assay.
# NCI-H2342 = experiment: cells; format: functional, cell-based; details: Homo sapiens;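 further: growth inhibition of the cancer cell line, determined with a cell viability assay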
# Description: SANGER: Inhibition of human NCI-H2342 cell growth in a cell viability assay.
# SW-620 = experiment: cells; format: functional, cell-based; details: Homo sapiens;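 further: growth inhibition of human SW-620 cells, measured by a cell viability assay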
# Description: SANGER: Inhibition of human SW620 cell growth in a cell viability assay.
# IGROV-1 = experiment: cells; format: functional, cell-based; details: Homo sapiens;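 further: reduction of IGROV-1 cell growth, read out with a viability assay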
# Description: SANGER: Inhibition of human IGROV-1 cell growth in a cell viability assay.
# DU-145 = experiment: cells; format: functional, cell-based; details: Homo sapiens
# Description: SANGER: Inhibition of human DU-145 cell growth in a cell viability assay.
# NCI-H1792 = experiment: cells; format: functional, cell-based; details: Homo sapiens;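 further: growth inhibition of human NCI-H1792 cells, read out as cell viability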
# Description: SANGER: Inhibition of human NCI-H1792 cell growth in a cell viability assay.
# U-251 = experiment: cells; format: functional, cell-based; details: Homo sapiens;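 further: growth inhibition of human U-251 cells, read out through a cell viability assay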
# Description: SANGER: Inhibition of human U251 cell growth in a cell viability assay.
# CAPAN-1 = experiment: cells; format: functional, cell-based; details: Homo sapiens;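 further: growth suppression of CAPAN-1 cells, read out by a cell viability assay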
# Description: SANGER: Inhibition of human CAPAN-1 cell growth in a cell viability assay.
# NCI-H727 = experiment: cells; format: functional, cell-based; details: Homo sapiens;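 further: growth inhibition of human NCI-H727 cells, read out with a cell viability assay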
# Description: SANGER: Inhibition of human NCI-H727 cell growth in a cell viability assay.
# RCM-1 = experiment: cells; format: functional, cell-based; details: Homo sapiens;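 further: growth inhibition of the RCM-1 line, determined with a cell viability readout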
# Description: SANGER: Inhibition of human RCM-1 cell growth in a cell viability assay.
# REH = experiment: cells; format: functional, cell-based; details: Homo sapiens;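 further: growth inhibition of REH cells determined with a cell viability read-out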
# Description: SANGER: Inhibition of human REH cell growth in a cell viability assay.
# Detroit 562 = experiment: cells; format: functional, cell-based; details: Homo sapiens;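 further: growth inhibition of human Detroit 562 cells, read out by a cell viability assay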
# Description: SANGER: Inhibition of human Detroit562 cell growth in a cell viability assay.
# U-698-M = experiment: cells; format: functional, cell-based; details: Homo sapiens
# Description: SANGER: Inhibition of human U-698-M cell growth in a cell viability assay.
# SIG-M5 = experiment: cells; format: functional, cell-based; details: Homo sapiens;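 further: cell viability assay read-out, measuring how strongly growth of cultured human SIG-M5 cells is inhibited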
# Description: SANGER: Inhibition of human SIG-M5 cell growth in a cell viability assay.
# Ca-Ski = experiment: cells; format: functional, cell-based; details: Homo sapiens;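 further: cell viability assay measuring inhibition of Ca-Ski cell growth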
# Description: SANGER: Inhibition of human Ca-Ski cell growth in a cell viability assay.
# HCC1395 = experiment: cells; format: functional, cell-based; details: Homo sapiens;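 further: growth inhibition of HCC1395 cells, read out by a cell viability assay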
# Description: SANGER: Inhibition of human HCC1395 cell growth in a cell viability assay.
# NCI-H1703 = experiment: cells; format: functional, cell-based; details: Homo sapiens;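 further: growth inhibition of NCI-H1703 cells, read out via a cell viability assay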
# Description: SANGER: Inhibition of human NCI-H1703 cell growth in a cell viability assay.
# OVCAR-3 = experiment: cells; format: functional, cell-based; details: Homo sapiens;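 further: growth inhibition of human OVCAR-3 cells, determined by a cell viability assay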
# Description: SANGER: Inhibition of human OVCAR-3 cell growth in a cell viability assay.
# NCI-H2196 = experiment: cells; format: functional, cell-based; details: Homo sapiens;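 further: cell viability assay used as the readout of growth inhibition in NCI-H2196 cells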
# Description: SANGER: Inhibition of human NCI-H2196 cell growth in a cell viability assay.
# HCT-15 = experiment: cells; format: functional, cell-based; details: Homo sapiens;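 further: cell viability readout, IC50 reflecting suppression of HCT-15 cell growth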
# Description: SANGER: Inhibition of human HCT-15 cell growth in a cell viability assay.
# SK-MM-2 = experiment: cells; format: functional, cell-based; details: Homo sapiens;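 further: growth inhibition of human SK-MM-2 cells, read out with a cell viability assay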
# Description: SANGER: Inhibition of human SK-MM-2 cell growth in a cell viability assay.
# FTC-133 = experiment: cells; format: functional, cell-based; details: Homo sapiens
# CP50-MEL-B = experiment: cells; format: functional, cell-based; details: Homo sapiens;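 further: growth inhibition of the human cell line, measured with a cell viability read-out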
# Description: SANGER: Inhibition of human CP50-MEL-B cell growth in a cell viability assay.
# 8305C = experiment: cells; format: functional, cell-based; details: Homo sapiens
# Description: SANGER: Inhibition of human 8305C cell growth in a cell viability assay.
# LU-99A = experiment: cells; format: functional, cell-based; details: Homo sapiens;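 further: growth inhibition of LU-99A cells, read out with a cell viability assay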
# Description: SANGER: Inhibition of human LU-99A cell growth in a cell viability assay.
# NCI-H2122 = experiment: cells; format: functional, cell-based; details: Homo sapiens;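 further: growth inhibition of the cells, read out with a cell viability assay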
# Description: SANGER: Inhibition of human NCI-H2122 cell growth in a cell viability assay.
# RPMI 8402 = experiment: SANGER: Inhibition of human RPMI-8402 cell growth in a cell viability assay.; format: functional, cell-based
# LU-165 = experiment: cells; format: functional, cell-based; details: Homo sapiens
# Description: SANGER: Inhibition of human LU-165 cell growth in a cell viability assay.
# WSU-NHL = experiment: cells; format: functional, cell-based; details: Homo sapiens;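 further: growth inhibition of human WSU-NHL cells, read out with a cell viability assay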
# Description: SANGER: Inhibition of human WSU-NHL cell growth in a cell viability assay.
# COLO-680N = experiment: cells; format: functional, cell-based; details: Homo sapiens;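 further: cell viability assay used to measure inhibition of COLO-680N cell growth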
# Description: SANGER: Inhibition of human COLO-680N cell growth in a cell viability assay.
smiles,measurement,setting,value
CO[C@@]12[C@H](COC(N)=O)C3=C(C(=O)C(C)=C(N)C3=O)N1C[C@@H]1N[C@@H]12 [MITOMYCIN],pIC50,MEL-HO,7.40
same,pIC50,HCC 2998,6.80
same,pIC50,TE-441-T,5.80
same,pIC50,A253 cell line,6.46
same,pIC50,CAL-120,5.22
same,pIC50,LB996-RCC,7.75
same,pIC50,BT-20,6.51
same,pIC50,HT-1080,6.45
same,pIC50,HPAF-II,5.96
same,pIC50,DG-75,5.20
same,pIC50,CHP-126,7.14
same,pIC50,SBC-5,> 7.20
same,pIC50,GP5d,7.08
same,pIC50,NCI-H2171,5.82
same,pIC50,DMS-153,6.37
same,pIC50,KMS-12-PE,5.42
same,pIC50,ME-180,7.40
same,pIC50,YAPC,5.36
same,pIC50,BPH-1,7.52
same,pIC50,CHP-212,> 7.20
same,pIC50,Ca9-22,6.81
same,pIC50,NCI-H1573,5.84
same,pIC50,HuCCT-1,6.04
same,pIC50,LB647-SCLC,6.47
same,pIC50,EHEB,6.17
same,pIC50,NCI-H748,7.23
same,pIC50,SNU-423,5.82
same,pIC50,EFM-19,5.68
same,pIC50,MCF7,> 7.20
same,pIC50,CHL-1,6.65
same,pIC50,HEC-1,6.16
same,pIC50,PANC-08-13,5.62
same,pIC50,EFO-21,6.23
same,pIC50,NCI-H2081,6.13
same,pIC50,NCI-H2342,7.20
same,pIC50,SW-620,7.40
same,pIC50,IGROV-1,6.97
same,pIC50,DU-145,> 7.20
same,pIC50,NCI-H1792,6.16
same,pIC50,U-251,6.89
same,pIC50,CAPAN-1,6.93
same,pIC50,NCI-H727,6.67
same,pIC50,RCM-1,6.07
same,pIC50,REH,> 7.20
same,pIC50,Detroit 562,6.77
same,pIC50,U-698-M,5.80
same,pIC50,SIG-M5,> 7.20
same,pIC50,Ca-Ski,7.27
same,pIC50,HCC1395,5.98
same,pIC50,NCI-H1703,6.56
same,pIC50,OVCAR-3,5.95
same,pIC50,NCI-H2196,6.05
same,pIC50,HCT-15,6.33
same,pIC50,SK-MM-2,5.57
same,pIC50,FTC-133,6.29
same,pIC50,CP50-MEL-B,6.11
same,pIC50,8305C,6.81
same,pIC50,LU-99A,6.65
same,pIC50,NCI-H2122,> 7.20
same,pIC50,RPMI 8402,7.77
same,pIC50,LU-165,6.29
same,pIC50,WSU-NHL,6.72
same,pIC50,COLO-680N,6.61
Fc1cc(-c2cc[nH]/c(=N/c3ccc(-n4cnc(N5CCOCC5)n4)cc3)n2)cc(N2CCOCC2)c1,pIC50,MEL-HO,6.72
same,pIC50,HCC 2998,5.69
same,pIC50,TE-441-T,6.50
same,pIC50,A253 cell line,6.58
same,pIC50,CAL-120,5.85
same,pIC50,LB996-RCC,6.28
same,pIC50,BT-20,6.31
same,pIC50,HT-1080,6.37
same,pIC50,HPAF-II,6.29
same,pIC50,DG-75,5.89
same,pIC50,CHP-126,6.22
same,pIC50,SBC-5,6.40
same,pIC50,GP5d,6.29
same,pIC50,NCI-H2171,6.10
same,pIC50,DMS-153,5.91
same,pIC50,KMS-12-PE,5.93
same,pIC50,ME-180,5.85
same,pIC50,YAPC,5.64
same,pIC50,BPH-1,5.70
same,pIC50,CHP-212,6.54
same,pIC50,Ca9-22,6.41
same,pIC50,HuCCT-1,6.26
same,pIC50,LB647-SCLC,< 5.29
same,pIC50,EHEB,6.42
same,pIC50,NCI-H748,5.97
same,pIC50,SNU-423,6.42
same,pIC50,EFM-19,6.12
same,pIC50,MCF7,6.41
same,pIC50,CHL-1,6.31
same,pIC50,HEC-1,5.67
same,pIC50,PANC-08-13,7.05
same,pIC50,EFO-21,6.04
same,pIC50,NCI-H2081,5.82
same,pIC50,NCI-H2342,6.44
same,pIC50,SW-620,6.45
same,pIC50,IGROV-1,7.01
same,pIC50,DU-145,6.32
same,pIC50,NCI-H1792,5.60
same,pIC50,U-251,5.88
same,pIC50,CAPAN-1,6.40
same,pIC50,NCI-H727,6.19
same,pIC50,RCM-1,5.75
same,pIC50,REH,6.14
same,pIC50,Detroit 562,6.49
same,pIC50,U-698-M,6.55
same,pIC50,SIG-M5,6.91
same,pIC50,Ca-Ski,6.27
same,pIC50,HCC1395,6.38
same,pIC50,NCI-H1703,6.23
same,pIC50,OVCAR-3,6.25
same,pIC50,NCI-H2196,6.10
same,pIC50,HCT-15,6.59
same,pIC50,SK-MM-2,5.90
same,pIC50,FTC-133,< 5.29
same,pIC50,CP50-MEL-B,6.14
same,pIC50,8305C,6.40
same,pIC50,LU-99A,6.13
same,pIC50,NCI-H2122,6.62
same,pIC50,RPMI 8402,6.22
same,pIC50,LU-165,6.08
same,pIC50,WSU-NHL,6.23
same,pIC50,COLO-680N,6.25
